# Test results taken from paper PMC5862592, “CDK8/19 inhibition induces premature G1/S transition and ATR-dependent cell death in prostate cancer cells” (Oncotarget, 2018).
# Like-named read-outs stand apart in the source and are kept apart here.
# Key:
# Test in all cases: biochemical
# Set-up in all cases: KINOMEscan active site-directed competition binding assay (DiscoveRx), 456 kinases, per cent of control at 300 nM
# Settings in all cases: read-out: Percent of Control (%)
# ACVR2B = ACVR2B (Homo sapiens, UniProt Q13705)
# In short: (§1)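 Single-concentration selectivity screen: compound 300 nmol/L; 456-kinase panel; active-site-directed competition binding read-out.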
# CSF1R-autoinhibited = CSF1R-autoinhibited (Homo sapiens, UniProt P07333)
# In short: as §1
# CSNK1A1 = CSNK1A1 (Homo sapiens, UniProt P48729)
# In short: as §1
# EIF2AK1 = EIF2AK1 (Homo sapiens, UniProt Q9BQI3)
# In short: as §1
# EPHA2 = EPHA2 (Homo sapiens, UniProt P29317)
# In short: as §1
# EPHA6 = EPHA6 (Homo sapiens, UniProt Q9UF33)
# In short: as §1
# ERK1 = target: T1, ERK1 (Homo sapiens, UniProt P27361)
# T1 construct: gene MAPK3
# In short: as §1
# ERK5 = target: T2, ERK5 (Homo sapiens, UniProt Q13164)
# T2 construct: gene MAPK7
# In short: as §1
# FGFR2 = FGFR2 (Homo sapiens, UniProt P21802)
# In short: as §1
# IKK-beta = target: T3, IKK-beta (Homo sapiens, UniProt O14920)
# T3 construct: gene IKBKB
# In short: as §1
# [1] = target: T4, JAK2(JH1domain-catalytic) (Homo sapiens, UniProt O60674)
# T4 construct: JH1domain-catalytic
# In short: as §1
# [2] = target: T5, JAK3(JH1domain-catalytic) (Homo sapiens, UniProt P52333)
# T5 construct: JH1domain-catalytic
# In short: as §1
# JNK3 = target: T6, JNK3 (Homo sapiens, UniProt P53779)
# T6 construct: gene MAPK10
# In short: as §1
# MEK1 = target: T7, MEK1 (Homo sapiens, UniProt Q02750)
# T7 construct: gene MAP2K1
# In short: as §1
# PFCDPK1(P.falciparum) = target: T8, PFCDPK1(P.falciparum) (Plasmodium falciparum, UniProt P62344)
# T8 construct: gene CDPK1
# In short: as §1
# PIP5K1A = PIP5K1A (Homo sapiens, UniProt Q99755)
# In short: as §1
# PRKD3 = PRKD3 (Homo sapiens, UniProt O94806)
# In short: as §1
# RET(V804M) = RET(V804M) (Homo sapiens, UniProt P07949, V804M)
# In short: as §1
# TESK1 = TESK1 (Homo sapiens, UniProt Q15569)
# In short: as §1
# TRKA = target: T9, TRKA (Homo sapiens, UniProt P04629)
# T9 construct: gene NTRK1
# In short: as §1
# TRKC = target: T10, TRKC (Homo sapiens, UniProt Q16288)
# T10 construct: gene NTRK3
# In short: as §1
# WEE1 = WEE1 (Homo sapiens, UniProt P30291)
# In short: as §1
# T8 sequence (P62344 whole entry): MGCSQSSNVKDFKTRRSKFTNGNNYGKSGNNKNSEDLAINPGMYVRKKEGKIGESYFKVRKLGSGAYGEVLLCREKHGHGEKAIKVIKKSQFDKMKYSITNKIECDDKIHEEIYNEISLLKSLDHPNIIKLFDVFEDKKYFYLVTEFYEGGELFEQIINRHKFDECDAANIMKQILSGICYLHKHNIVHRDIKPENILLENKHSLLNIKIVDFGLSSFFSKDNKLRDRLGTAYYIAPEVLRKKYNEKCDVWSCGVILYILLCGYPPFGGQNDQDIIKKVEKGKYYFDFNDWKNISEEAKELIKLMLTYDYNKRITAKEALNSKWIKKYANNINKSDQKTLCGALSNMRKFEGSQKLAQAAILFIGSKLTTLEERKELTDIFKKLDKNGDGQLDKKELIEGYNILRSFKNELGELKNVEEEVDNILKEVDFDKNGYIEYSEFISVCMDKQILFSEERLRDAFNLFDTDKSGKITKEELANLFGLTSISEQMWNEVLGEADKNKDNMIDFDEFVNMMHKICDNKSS
# PRKD3, sequence (O94806 whole entry): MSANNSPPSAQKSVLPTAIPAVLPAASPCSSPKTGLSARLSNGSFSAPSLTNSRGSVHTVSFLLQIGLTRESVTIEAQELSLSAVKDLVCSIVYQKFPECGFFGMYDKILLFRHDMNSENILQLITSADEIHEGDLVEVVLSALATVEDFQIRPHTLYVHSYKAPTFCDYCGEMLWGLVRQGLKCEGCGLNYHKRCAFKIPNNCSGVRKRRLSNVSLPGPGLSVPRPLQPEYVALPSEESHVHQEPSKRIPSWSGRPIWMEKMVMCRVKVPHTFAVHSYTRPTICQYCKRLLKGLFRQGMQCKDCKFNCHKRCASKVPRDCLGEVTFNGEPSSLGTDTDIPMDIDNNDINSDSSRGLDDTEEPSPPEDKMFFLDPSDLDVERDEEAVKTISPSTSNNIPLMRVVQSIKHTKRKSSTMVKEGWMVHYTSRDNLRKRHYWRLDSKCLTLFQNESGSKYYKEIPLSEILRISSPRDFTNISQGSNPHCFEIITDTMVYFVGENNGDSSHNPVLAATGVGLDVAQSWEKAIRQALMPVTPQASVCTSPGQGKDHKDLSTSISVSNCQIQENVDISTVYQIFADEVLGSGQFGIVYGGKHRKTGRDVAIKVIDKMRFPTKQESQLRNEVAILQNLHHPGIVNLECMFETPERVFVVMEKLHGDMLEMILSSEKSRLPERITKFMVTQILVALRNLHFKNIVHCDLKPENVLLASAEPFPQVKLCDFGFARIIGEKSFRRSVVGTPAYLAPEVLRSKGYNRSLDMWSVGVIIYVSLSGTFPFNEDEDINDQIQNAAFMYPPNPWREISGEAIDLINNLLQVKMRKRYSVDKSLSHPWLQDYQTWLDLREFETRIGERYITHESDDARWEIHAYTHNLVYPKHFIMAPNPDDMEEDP
# TESK1, sequence (Q15569 whole entry): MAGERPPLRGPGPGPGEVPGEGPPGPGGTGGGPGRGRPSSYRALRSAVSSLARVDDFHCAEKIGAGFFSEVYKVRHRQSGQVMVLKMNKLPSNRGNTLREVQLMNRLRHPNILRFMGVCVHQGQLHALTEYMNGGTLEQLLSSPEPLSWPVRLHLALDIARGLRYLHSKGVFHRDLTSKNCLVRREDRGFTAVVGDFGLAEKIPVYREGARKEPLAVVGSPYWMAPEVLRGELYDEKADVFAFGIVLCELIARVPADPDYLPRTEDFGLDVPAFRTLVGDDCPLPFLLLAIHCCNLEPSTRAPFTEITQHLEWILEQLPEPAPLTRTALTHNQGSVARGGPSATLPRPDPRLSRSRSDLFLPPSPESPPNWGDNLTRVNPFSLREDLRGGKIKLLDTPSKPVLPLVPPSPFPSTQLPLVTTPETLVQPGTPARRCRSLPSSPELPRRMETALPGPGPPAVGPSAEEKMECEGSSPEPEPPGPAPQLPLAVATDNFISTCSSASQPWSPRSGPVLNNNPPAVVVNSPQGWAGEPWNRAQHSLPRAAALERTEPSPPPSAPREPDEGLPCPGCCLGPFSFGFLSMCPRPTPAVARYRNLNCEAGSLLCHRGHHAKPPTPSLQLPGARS
# CSF1R-autoinhibited, sequence (P07333 whole entry): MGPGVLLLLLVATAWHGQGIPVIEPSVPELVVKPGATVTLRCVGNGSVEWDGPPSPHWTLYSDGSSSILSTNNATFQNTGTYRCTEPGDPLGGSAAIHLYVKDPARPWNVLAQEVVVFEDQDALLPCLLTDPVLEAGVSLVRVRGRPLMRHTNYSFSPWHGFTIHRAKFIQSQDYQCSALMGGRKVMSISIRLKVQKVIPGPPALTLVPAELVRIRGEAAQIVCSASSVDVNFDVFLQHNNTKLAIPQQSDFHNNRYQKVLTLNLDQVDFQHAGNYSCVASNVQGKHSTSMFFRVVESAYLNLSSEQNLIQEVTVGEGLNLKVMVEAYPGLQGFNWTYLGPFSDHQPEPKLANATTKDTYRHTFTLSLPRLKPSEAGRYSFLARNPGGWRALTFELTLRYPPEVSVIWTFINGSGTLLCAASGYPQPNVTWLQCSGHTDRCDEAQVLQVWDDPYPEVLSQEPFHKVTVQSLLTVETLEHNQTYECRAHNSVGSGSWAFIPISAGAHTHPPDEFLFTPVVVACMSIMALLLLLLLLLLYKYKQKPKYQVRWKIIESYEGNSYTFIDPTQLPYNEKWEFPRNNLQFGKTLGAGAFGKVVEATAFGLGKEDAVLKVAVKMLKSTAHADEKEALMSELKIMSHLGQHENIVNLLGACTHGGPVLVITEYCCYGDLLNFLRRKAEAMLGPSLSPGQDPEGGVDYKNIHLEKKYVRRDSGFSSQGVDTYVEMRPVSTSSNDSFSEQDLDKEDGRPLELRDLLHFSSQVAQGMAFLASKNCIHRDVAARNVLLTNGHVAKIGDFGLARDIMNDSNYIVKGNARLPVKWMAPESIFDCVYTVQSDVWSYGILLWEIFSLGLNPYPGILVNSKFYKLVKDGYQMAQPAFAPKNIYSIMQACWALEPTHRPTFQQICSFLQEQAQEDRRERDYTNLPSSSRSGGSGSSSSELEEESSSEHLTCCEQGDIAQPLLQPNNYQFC
# EPHA2, sequence (P29317 whole entry): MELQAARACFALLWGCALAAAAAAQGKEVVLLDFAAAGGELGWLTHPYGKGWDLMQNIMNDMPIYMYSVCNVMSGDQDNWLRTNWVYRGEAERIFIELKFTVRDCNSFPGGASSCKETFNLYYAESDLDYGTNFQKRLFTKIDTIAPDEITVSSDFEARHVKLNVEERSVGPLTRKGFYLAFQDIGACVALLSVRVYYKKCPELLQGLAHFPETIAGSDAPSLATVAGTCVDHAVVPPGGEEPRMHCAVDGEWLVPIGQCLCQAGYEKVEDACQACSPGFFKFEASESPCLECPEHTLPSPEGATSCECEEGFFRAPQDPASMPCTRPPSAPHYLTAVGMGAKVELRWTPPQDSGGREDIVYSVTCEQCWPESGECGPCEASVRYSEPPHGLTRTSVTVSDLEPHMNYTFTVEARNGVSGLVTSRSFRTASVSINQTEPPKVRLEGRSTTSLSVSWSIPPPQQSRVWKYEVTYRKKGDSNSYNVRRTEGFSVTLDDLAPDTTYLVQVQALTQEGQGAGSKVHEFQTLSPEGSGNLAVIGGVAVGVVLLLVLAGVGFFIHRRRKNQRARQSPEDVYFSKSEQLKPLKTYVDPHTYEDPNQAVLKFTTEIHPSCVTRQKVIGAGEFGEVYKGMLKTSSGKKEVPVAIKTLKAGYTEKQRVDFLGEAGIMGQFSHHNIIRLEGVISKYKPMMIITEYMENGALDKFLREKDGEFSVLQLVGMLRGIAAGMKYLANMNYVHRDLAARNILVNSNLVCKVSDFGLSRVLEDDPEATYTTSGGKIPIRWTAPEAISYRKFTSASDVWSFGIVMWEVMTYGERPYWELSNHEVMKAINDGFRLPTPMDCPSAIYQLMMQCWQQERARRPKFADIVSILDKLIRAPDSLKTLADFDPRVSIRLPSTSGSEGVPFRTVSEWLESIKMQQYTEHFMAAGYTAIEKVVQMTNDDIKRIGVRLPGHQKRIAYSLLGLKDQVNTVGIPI
# FGFR2, sequence (P21802 whole entry): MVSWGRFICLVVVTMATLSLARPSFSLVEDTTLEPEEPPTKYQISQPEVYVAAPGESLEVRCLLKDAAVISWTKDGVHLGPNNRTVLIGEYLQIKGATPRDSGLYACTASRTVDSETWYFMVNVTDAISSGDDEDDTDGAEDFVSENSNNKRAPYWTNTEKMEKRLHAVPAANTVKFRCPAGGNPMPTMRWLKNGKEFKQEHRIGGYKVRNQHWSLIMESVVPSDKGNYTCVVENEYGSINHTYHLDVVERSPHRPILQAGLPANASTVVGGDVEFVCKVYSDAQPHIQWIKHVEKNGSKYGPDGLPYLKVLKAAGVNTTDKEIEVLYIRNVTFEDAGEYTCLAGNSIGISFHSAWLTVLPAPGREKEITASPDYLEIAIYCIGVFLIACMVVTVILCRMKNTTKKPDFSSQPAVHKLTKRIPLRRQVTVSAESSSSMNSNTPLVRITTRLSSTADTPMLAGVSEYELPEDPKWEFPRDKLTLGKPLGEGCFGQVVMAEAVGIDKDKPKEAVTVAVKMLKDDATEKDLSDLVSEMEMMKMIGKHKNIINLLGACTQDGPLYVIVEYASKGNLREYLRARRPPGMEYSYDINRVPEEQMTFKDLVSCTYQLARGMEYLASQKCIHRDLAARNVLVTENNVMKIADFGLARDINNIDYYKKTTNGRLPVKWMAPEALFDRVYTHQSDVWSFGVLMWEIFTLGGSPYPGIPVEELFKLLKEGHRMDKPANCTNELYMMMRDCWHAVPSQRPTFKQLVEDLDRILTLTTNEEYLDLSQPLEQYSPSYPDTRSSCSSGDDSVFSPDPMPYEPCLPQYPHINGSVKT
smiles,measurement,setting,value
"O=C(/C=C/c1cnccc1-c1ccc(F)cc1)Nc1ccc(CCc2nnco2)cc1 [T-418, (2E)-3-(4-(4-fluorophenyl)pyridin-3-yl)-N-(4-(2-(1,3,4-oxadiazol-2-yl)ethyl)phenyl)acrylamide]",remaining binding at 0.3 µM,ACVR2B; sheet T-418,80%
same,remaining binding at 0.3 µM,CSF1R-autoinhibited; sheet T-418,86%
same,remaining binding at 0.3 µM,CSNK1A1; sheet T-418,100%
same,remaining binding at 0.3 µM,EIF2AK1; sheet T-418,100%
same,remaining binding at 0.3 µM,EPHA2; sheet T-418,100%
same,remaining binding at 0.3 µM,EPHA6; sheet T-418,100%
same,remaining binding at 0.3 µM,ERK1; sheet T-418,94%
same,remaining binding at 0.3 µM,ERK5; sheet T-418,75%
same,remaining binding at 0.3 µM,FGFR2; sheet T-418,90%
same,remaining binding at 0.3 µM,IKK-beta; sheet T-418,100%
same,remaining binding at 0.3 µM,[1]; sheet T-418,100%
same,remaining binding at 0.3 µM,[2]; sheet T-418,68%
same,remaining binding at 0.3 µM,JNK3; sheet T-418,94%
same,remaining binding at 0.3 µM,MEK1; sheet T-418,100%
same,remaining binding at 0.3 µM,PFCDPK1(P.falciparum); sheet T-418,100%
same,remaining binding at 0.3 µM,PIP5K1A; sheet T-418,94%
same,remaining binding at 0.3 µM,PRKD3; sheet T-418,100%
same,remaining binding at 0.3 µM,RET(V804M); sheet T-418,100%
same,remaining binding at 0.3 µM,TESK1; sheet T-418,99%
same,remaining binding at 0.3 µM,TRKA; sheet T-418,92%
same,remaining binding at 0.3 µM,TRKC; sheet T-418,82%
same,remaining binding at 0.3 µM,WEE1; sheet T-418,90%
"Cc1ncccc1Oc1sc(C(N)=O)c2c1-c1c(cnn1C)CC2 [T-474, 1-methyl-8-((2-methylpyridin-3-yl)oxy)-4,5-dihydro-1H-thieno[3,4-g]indazole-6-carboxamide]",remaining binding at 0.3 µM,ACVR2B,81%
same,remaining binding at 0.3 µM,CSF1R-autoinhibited,100%
same,remaining binding at 0.3 µM,CSNK1A1,98%
same,remaining binding at 0.3 µM,EIF2AK1,100%
same,remaining binding at 0.3 µM,EPHA2,86%
same,remaining binding at 0.3 µM,EPHA6,100%
same,remaining binding at 0.3 µM,ERK1,100%
same,remaining binding at 0.3 µM,ERK5,98%
same,remaining binding at 0.3 µM,FGFR2,100%
same,remaining binding at 0.3 µM,IKK-beta,100%
same,remaining binding at 0.3 µM,[1],100%
same,remaining binding at 0.3 µM,[2],72%
same,remaining binding at 0.3 µM,JNK3,97%
same,remaining binding at 0.3 µM,MEK1,100%
same,remaining binding at 0.3 µM,PFCDPK1(P.falciparum),100%
same,remaining binding at 0.3 µM,PIP5K1A,99%
same,remaining binding at 0.3 µM,PRKD3,100%
same,remaining binding at 0.3 µM,RET(V804M),100%
same,remaining binding at 0.3 µM,TESK1,100%
same,remaining binding at 0.3 µM,TRKA,95%
same,remaining binding at 0.3 µM,TRKC,87%
same,remaining binding at 0.3 µM,WEE1,90%
